Patent publication US10494376B2, “Tetrahydroisoquinoline derived PRMT5-inhibitors” (CTXT PTY LTD, priority 2014, dated 2019)
pIC50: −log10 of the molar value. Where a name gives a salt, the structure may show the parent alone.

target: Full-length PRMT5 enzyme (NCBI Reference sequence NP_006100.2) co-expressed with His6-MEP50 (Homo sapiens (Human), UniProt O14744); test: Revised PRMT5 Biochemical Assay; settings: 1 μM peptide substrate, 1 μM S-Adenosyl methionine, 4 hours at 37 degree Celsius, Transcreener EPIGEN fluorescence polarisation
Sequence (O14744 whole entry): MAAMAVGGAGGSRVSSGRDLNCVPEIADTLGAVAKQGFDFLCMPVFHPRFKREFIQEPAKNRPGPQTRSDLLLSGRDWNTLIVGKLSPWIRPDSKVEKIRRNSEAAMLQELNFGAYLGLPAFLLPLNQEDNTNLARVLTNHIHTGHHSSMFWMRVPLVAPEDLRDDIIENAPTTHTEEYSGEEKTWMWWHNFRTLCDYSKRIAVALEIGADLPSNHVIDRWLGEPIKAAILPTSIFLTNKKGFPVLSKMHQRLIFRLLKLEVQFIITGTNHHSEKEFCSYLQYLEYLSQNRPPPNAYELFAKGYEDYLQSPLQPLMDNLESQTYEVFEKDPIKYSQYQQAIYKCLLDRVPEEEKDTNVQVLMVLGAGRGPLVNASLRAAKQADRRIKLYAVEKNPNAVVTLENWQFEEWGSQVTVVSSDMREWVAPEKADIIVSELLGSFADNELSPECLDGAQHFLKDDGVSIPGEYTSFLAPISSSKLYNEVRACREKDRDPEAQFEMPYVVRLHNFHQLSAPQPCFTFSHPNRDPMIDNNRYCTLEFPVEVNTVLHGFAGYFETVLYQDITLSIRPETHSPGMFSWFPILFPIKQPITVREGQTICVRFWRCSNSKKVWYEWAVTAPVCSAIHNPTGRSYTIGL
Sequence (Q9BQA1 whole entry partner): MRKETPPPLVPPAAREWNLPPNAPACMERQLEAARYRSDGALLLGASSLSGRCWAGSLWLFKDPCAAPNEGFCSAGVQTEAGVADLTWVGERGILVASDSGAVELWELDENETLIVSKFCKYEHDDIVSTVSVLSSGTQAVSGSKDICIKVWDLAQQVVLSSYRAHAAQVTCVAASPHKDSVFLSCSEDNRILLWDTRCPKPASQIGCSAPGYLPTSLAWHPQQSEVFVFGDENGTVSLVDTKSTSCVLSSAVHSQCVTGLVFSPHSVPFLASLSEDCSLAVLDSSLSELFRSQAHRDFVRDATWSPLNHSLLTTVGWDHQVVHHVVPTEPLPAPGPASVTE
Description: Compounds of the invention may be tested for in vitro activity in the following assay: A histone H4 derived peptide is used as substrate (amino acid sequence: […]N H2). Full-length PRMT5 enzyme (NCBI Reference sequence NP_006100.2) was co-expressed with His6-MEP50 in insect cells and purified via Nickel immobilized metal affinity and gel filtration chromatography (“the enzyme”).
The 6 μL reactions are run in Greiner brand black 384-well low volume assay plates. All reactions contained assay buffer (phosphate buffered saline, 0.01% (v/v) Tween-20, 0.01% (w/v) albumin from chicken egg white, 1 mM Dithiothreitol, 1 μM peptide substrate, 1 μM S-Adenosyl methionine, and 15 ng/reaction enzyme, with the enzyme being omitted from negative control reactions. Compounds were added in a volume of 100 nL from dilution series prepared in DMSO, positive and negative control reactions receiving the same volume DMSO without compound. The plates were sealed with adhesive seals and incubated for 4 hours at 37 degree Celsius. Reaction progress was measured using the Transcreener™ EPIGEN methyltransferase assay (BellBrook Labs, Madison, Wis.) as recommended by the manufacturer. To each reaction 2 μL detection mix were added, containing coupling enzymes, fluorescence polarisation tracer, and AMP antibody. Plates were incubated for 90 minutes before being read on a PerkinElmer EnVision™ plate reader in fluorescence polarisation mode. IC50 values were obtained from the raw readings by calculating percent inhibition (%1) for each reaction relative to controls on the same plate (% I=(I−CN)/(CP−CN) where CN/CP are the averages of the negative/positive reactions, respectively), then fitting the %1 data vs. compound concentration [I] to % I=(A+((B−A)/(1+((C/[I])^D)))) where A is the lower asymptote, B is the upper asymptote, C is the IC50 value, and D is the slope.

| pIC50 | SMILES |
| --- | --- |
| 5.95 | CC(=O)N1CCC(Oc2cc(C(=O)NC[C@@H](O)[C@@H]3Cc4ccccc4CN3)cnn2)CC1 [Example 116, 6-((1-Acetylpiperidin-4-yl)oxy)-N-((R)-2-hydroxy-2-((S)-1,2,3,4-tetrahydroisoquinolin-3-yl)ethyl)pyridazine-4-carboxamide dihydrochloride] |
| 5.48 | COC(=O)N1CCC(Oc2cccc(C(=O)NC[C@@H](O)[C@@H]3Cc4ccccc4CN3)c2)CC1 [Example 60, Methyl 4-(3-(((R)-2-hydroxy-2-((S)-1,2,3,4-tetrahydroisoquinolin-3-yl)ethyl)carbamoyl)phenoxy)piperidine-1-carboxylate] |
| 4.09 | O=C(NC[C@@H](O)[C@H]1Cc2ccccc2CN1)c1ccc(C(=O)N2CCOCC2)cc1 [Example 54, N—((R)-2-Hydroxy-2-((R)-1,2,3,4-tetrahydroisoquinolin-3-yl)ethyl)-4-(morpholine-4-carbonyl)benzamide hydrochloride] |
| 5.64 | NC(=O)COc1ccccc1C(=O)NC[C@@H](O)[C@@H]1Cc2ccccc2CN1 [Example 65, 2-(2-Amino-2-oxoethoxy)-N-((R)-2-hydroxy-2-((S)-1,2,3,4-tetrahydroisoquinolin-3-yl)ethyl)benzamide] |
| 6.18 | O=C(NC[C@@H](O)[C@@H]1Cc2ccccc2CN1)c1ccc(OCC2CC2)nc1 [Example 58, 6-(Cyclopropylmethoxy)-N-((R)-2-hydroxy-2-((S)-1,2,3,4-tetrahydroisoquinolin-3-yl)ethyl)nicotinamide] |
| 6.64 | O=C(NC[C@@H](O)[C@@H]1Cc2ccccc2CN1)c1ccc(Cl)nc1 [Example 98, 6-Chloro-N—((R)-2-hydroxy-2-((S)-1,2,3,4-tetrahydroisoquinolin-3-yl)ethyl)nicotinamide hydrochloride] |
| 4.73 | CC(C)NC(=O)c1ccc(C(=O)NC[C@@H](O)[C@@H]2Cc3ccccc3CN2)cc1 [Example 97, N^1-((R)-2-Hydroxy-2-((S)-1,2,3,4-tetrahydroisoquinolin-3-yl)ethyl)-N^4-isopropylterephthalamide] |
| 6.42 | O=C(NCc1ccccn1)c1ccc(C(=O)NC[C@@H](O)[C@@H]2Cc3ccccc3CN2)cc1 [Example 56, N^1-((R)-2-Hydroxy-2-((S)-1,2,3,4-tetrahydroisoquinolin-3-yl)ethyl)-N^4-(pyridin-2-ylmethly)terephthalamide] |
| 6.98 | CC(C)OC(=O)N1CCC(Oc2cc(C(=O)NC[C@@H](O)[C@@H]3Cc4ccccc4CN3)ccn2)CC1 [Example 61, Isopropyl 4-((4-(((R)-2-hydroxy-2-((S)-1,2,3,4-tetrahydroisoquinolin-3-yl)ethyl)carbamoyl)pyridin-2-yl)oxy)piperidine-1-carboxylate] |
| 6.12 | O=C(NC[C@@H](O)[C@@H]1Cc2ccccc2CN1)c1ccc(C(=O)N2CCCCO2)cc1 [Example 93, N-((R)-2-Hydroxy-2-((S)-1,2,3,4-tetrahydroisoquinolin-3-yl)ethyl)-4-(1,2-oxazinane-2-carbonyl)benzamide] |
| 6.26 | O=C(NC[C@@H](O)[C@@H]1Cc2ccccc2CN1)c1cc(NC2COC2)ncn1 [Example 107, N—((R)-2-Hydroxy-2-((S)-1,2,3,4-tetrahydroisoquinolin-3-yl)ethyl)-6-(oxetan-3-ylamino)pyrimidine-4-carboxamide] |
| 5.55 | O=C(NC[C@@H](O)[C@@H]1Cc2ccccc2CN1)c1cc(Cl)nc(OC2COC2)c1 [Example 115, 2-Chloro-N-((R)-2-hydroxy-2-((S)-1,2,3,4-tetrahydroisoquinolin-3-yl)ethyl)-6-(oxetan-3-yloxy)isonicotinamide dihydrochloride] |

Further lines, the compound ahead of its results:

| SMILES | pIC50 |
| --- | --- |
| COC1CC2CCC(C1)N2C(=O)c1ccc(C(=O)NC[C@@H](O)[C@@H]2Cc3ccccc3CN2)cc1 (stereo partly drawn) [Example 38, N-((R)-2-Hydroxy-2-((S)-1,2,3,4-tetrahydroisoquinolin-3-yl)ethyl)-4-(3-methoxy-8-azabicyclo[3.2.1]octane-8-carbonyl)benzamide] | 6.22 |
| CN1CCN(C(=O)c2ccc(C(=O)NC[C@@H](O)[C@@H]3Cc4ccccc4CN3)cc2)CC1=O [Example 41, N-((R)-2-Hydroxy-2-((S)-1,2,3,4-tetrahydroisoquinolin-3-yl)ethyl)-4-(4-methyl-3-oxopiperazine-1-carbonyl)benzamide] | 5.86 |
| CCS(=O)(=O)N1CCN(C(=O)c2ccc(C(=O)NC[C@@H](O)[C@@H]3Cc4ccccc4CN3)cc2)CC1 [Example 33, 4-(4-(Ethylsulfonyl)piperazine-1-carbonyl)-N-((R)-2-hydroxy-2-((S)-1,2,3,4-tetrahydroisoquinolin-3-yl)ethyl)benzamide] | 6.52 |
| CC(C)N(C)C(=O)c1ccc(C(=O)NC[C@@H](O)[C@@H]2Cc3ccccc3CN2)cc1 [Example 39, N^1-((R)-2-Hydroxy-2-((S)-1,2,3,4-tetrahydroisoquinolin-3-yl)ethyl)-N^4-isopropyl-N^4-methylterephthalamide] | 6.07 |
| O=C(NC[C@@H](O)[C@@H]1Cc2ccccc2CN1)c1ccc(C(=O)N2CCC(C(F)F)CC2)cc1 [Example 46, 4-(4-(Difluoromethyl)piperidine-1-carbonyl)-N-((R)-2-hydroxy-2-((S)-1,2,3,4-tetrahydroisoquinolin-3-yl)ethyl)benzamide] | 6.64 |
| O=C(NC[C@@H](O)[C@@H]1Cc2ccccc2CN1)c1cccc(C(F)F)c1 [Example 22, 3-(Difluoromethyl)-N-((R)-2-hydroxy-2-((S)-1,2,3,4-tetrahydroisoquinolin-3-yl)ethyl)benzamide] | 5.67 |
| O=C(NC[C@@H](O)[C@@H]1Cc2ccccc2CN1)c1ccc(C(=O)N2CCC(O)(C(F)F)CC2)cc1 [Example 30, 4-(4-(Difluoromethyl)-4-hydroxypiperidine-1-carbonyl)-N-((R)-2-hydroxy-2-((S)-1,2,3,4-tetrahydroisoquinolin-3-yl)ethyl)benzamide] | 6.86 |
| O=C(NC[C@@H](O)[C@@H]1Cc2ccccc2CN1)c1ccc(C(=O)N2CCCC(O)C2)cc1 (stereo partly drawn) [Example 43, N-((R)-2-Hydroxy-2-((S)-1,2,3,4-tetrahydroisoquinolin-3-yl)ethyl)-4-(3-hydroxypiperidine-1-carbonyl)benzamide] | 6.01 |
| O=C(NC[C@@H](O)[C@@H]1Cc2ccccc2CN1)c1csc(-c2ccccc2)n1 [Example 16, N-((R)-2-Hydroxy-2-((S)-1,2,3,4-tetrahydroisoquinolin-3-yl)ethyl)-2-phenylthiazole-4-carboxamide] | 6.18 |
| O=C(NC[C@@H](O)[C@@H]1Cc2ccccc2CN1)c1ccc(C(=O)N2CCC(CO)CC2)cc1 [Example 32, N-((R)-2-Hydroxy-2-((S)-1,2,3,4-tetrahydroisoquinolin-3-yl)ethyl)-4-(4-(hydroxymethyl)piperidine-1-carbonyl)benzamide] | 6.29 |
| O=C(NC[C@@H](O)[C@@H]1Cc2ccccc2CN1)c1ccc(C(=O)N2CCOCC2)cn1 [Example 29, N-((R)-2-Hydroxy-2-((S)-1,2,3,4-tetrahydroisoquinolin-3-yl)ethyl)-5-(morpholine-4-carbonyl)picolinamide dihydrochloride salt] | 6.27 |
| CC(=O)N1CCC(N(C)C(=O)c2ccc(C(=O)NC[C@@H](O)[C@@H]3Cc4ccccc4CN3)cc2)CC1 [Example 19, N^1-(1-Acetylpiperidin-4-yl)-N^4-((R)-2-hydroxy-2-((S)-1,2,3,4-tetrahydroisoquinolin-3-yl)ethyl)-N^1 methylterephthalamide] | 6.04 |
| O=C(NC[C@@H](O)[C@@H]1Cc2ccccc2CN1)c1cnn(-c2cccnc2)c1 [Example 17, N-((R)-2-Hydroxy-2-((S)-1,2,3,4-tetrahydroisoquinolin-3-yl)ethyl)-1-(pyridin-3-yl)-1H-pyrazole-4-carboxamide dihydrochloride salt] | 5.90 |
| CC(=O)N1CCC(NC(=O)c2ccc(C(=O)NC[C@@H](O)[C@@H]3Cc4ccccc4CN3)cc2)CC1 [Example 35, N^1-(1-Acetylpiperidin-4-yl)-N^4-((R)-2-hydroxy-2-((S)-1,2,3,4-tetrahydroisoquinolin-3-yl)ethyl)terephthalamide] | 6.82 |
| O=C(NC[C@@H](O)[C@@H]1Cc2ccccc2CN1)c1ccccc1Cl [Example 4, 2-Chloro-N-((R)-2-hydroxy-2-((S)-1,2,3,4-tetrahydroisoquinolin-3-yl)ethyl)benzamide] | 5.06 |
| O=C(NCC1CCOCC1)c1ccc(C(=O)NC[C@@H](O)[C@@H]2Cc3ccccc3CN2)cc1 [Example 31, N^1-((R)-2-Hydroxy-2-((S)-1,2,3,4-tetrahydroisoquinolin-3-yl)ethyl)-N^4-((tetrahydro-2H-pyran-4-yl)methyl)terephthalamide] | 6.69 |
| O=C(NC[C@@H](O)[C@@H]1Cc2ccccc2CN1)c1ccc(C(=O)N2CCC(O)CC2)cc1 [Example 45, N-((R)-2-Hydroxy-2-((S)-1,2,3,4-tetrahydroisoquinolin-3-yl)ethyl)-4-(4-hydroxypiperidine-1-carbonyl)benzamide] | 6.30 |
